Experimental data reported in ChEMBL document CHEMBL5678818, “Discovery of potent SOS1 inhibitors that block RAS activation via disruption of the RAS-SOS1 interaction” (Proc Natl Acad Sci U S A, 2019).

How the values were obtained:
[1] = biological target: Mitogen-activated protein kinase 3 (Homo sapiens) (UniProt P27361); assay: Inhibition of ERK1 (unknown origin) assessed as residual activity at 1000 nM by KINOMEscan analysis relative to control
[2] = biological target: T1, Megakaryocyte-associated tyrosine-protein kinase (Homo sapiens) (UniProt P42679); assay: Inhibition of CTK (unknown origin) assessed as residual activity at 1000 nM by KINOMEscan analysis relative to control
T1 sequence (whole entry): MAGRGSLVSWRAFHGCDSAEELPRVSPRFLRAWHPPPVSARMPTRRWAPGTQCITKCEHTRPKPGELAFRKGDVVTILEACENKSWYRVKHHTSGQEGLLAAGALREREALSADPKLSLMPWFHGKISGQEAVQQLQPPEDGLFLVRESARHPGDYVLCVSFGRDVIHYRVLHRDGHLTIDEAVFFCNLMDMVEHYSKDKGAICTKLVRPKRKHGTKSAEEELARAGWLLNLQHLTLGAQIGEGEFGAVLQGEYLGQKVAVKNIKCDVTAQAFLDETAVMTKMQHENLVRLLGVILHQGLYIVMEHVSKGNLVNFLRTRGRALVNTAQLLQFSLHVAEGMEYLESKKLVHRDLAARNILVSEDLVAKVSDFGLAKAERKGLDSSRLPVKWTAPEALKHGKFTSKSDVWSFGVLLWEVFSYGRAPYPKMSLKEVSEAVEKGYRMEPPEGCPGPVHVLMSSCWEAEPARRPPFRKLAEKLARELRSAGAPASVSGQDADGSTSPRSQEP

[3] = biological target: T2, Serine/threonine-protein kinase Nek9 (Homo sapiens) (UniProt Q8TD19); assay: Inhibition of NEK9 (unknown origin) assessed as residual activity at 1000 nM by KINOMEscan analysis relative to control
T2 sequence (whole entry): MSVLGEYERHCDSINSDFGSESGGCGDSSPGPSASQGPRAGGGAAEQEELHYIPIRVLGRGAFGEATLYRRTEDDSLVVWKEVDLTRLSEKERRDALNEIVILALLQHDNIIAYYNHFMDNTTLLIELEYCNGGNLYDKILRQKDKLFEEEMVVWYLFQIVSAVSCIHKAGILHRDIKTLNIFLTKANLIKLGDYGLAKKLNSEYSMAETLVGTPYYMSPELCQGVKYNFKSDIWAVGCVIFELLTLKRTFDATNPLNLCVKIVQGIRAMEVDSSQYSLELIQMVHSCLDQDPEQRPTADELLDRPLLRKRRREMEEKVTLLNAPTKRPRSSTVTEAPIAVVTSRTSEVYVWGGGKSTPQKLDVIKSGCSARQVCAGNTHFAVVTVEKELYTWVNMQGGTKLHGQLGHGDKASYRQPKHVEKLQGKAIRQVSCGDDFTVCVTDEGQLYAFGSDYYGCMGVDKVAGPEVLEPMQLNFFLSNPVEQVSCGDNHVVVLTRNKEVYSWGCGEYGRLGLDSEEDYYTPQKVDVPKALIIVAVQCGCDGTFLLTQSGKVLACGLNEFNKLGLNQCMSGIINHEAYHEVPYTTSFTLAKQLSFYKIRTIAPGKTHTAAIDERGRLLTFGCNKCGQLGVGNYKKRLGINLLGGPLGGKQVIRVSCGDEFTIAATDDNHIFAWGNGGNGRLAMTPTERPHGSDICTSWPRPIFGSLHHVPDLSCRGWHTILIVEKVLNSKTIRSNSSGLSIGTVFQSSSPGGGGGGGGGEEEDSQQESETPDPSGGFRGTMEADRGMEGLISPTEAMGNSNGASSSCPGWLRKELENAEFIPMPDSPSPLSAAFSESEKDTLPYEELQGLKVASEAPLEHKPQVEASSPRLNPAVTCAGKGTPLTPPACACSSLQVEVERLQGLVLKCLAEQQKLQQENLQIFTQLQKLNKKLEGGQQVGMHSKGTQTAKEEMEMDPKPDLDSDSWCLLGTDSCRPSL

[4] = test system: eIF-2-alpha kinase GCN2 (Homo sapiens), Q9P2K8 [S808G]; assay: Inhibition of GCN2 S808G mutant […] domain (unknown origin) assessed as residual activity at 1000 nM by KINOMEscan analysis relative to control
[5] = test system: Tyrosine-protein kinase ABL1 (Homo sapiens), P00519 [F317I]; assay: Inhibition of nonphosphorylated ABL1 F317I mutant (unknown origin) assessed as residual activity at 1000 nM by KINOMEscan analysis relative to control
[6] = biological target: Serine/threonine-protein kinase PAK 5 (Homo sapiens) (UniProt Q9P286); assay: Inhibition of PAK7 (unknown origin) assessed as residual activity at 1000 nM by KINOMEscan analysis relative to control
[7] = test system: Tyrosine-protein kinase ABL1 (Homo sapiens), P00519 [M351T]; assay: Inhibition of phosphorylated ABL1 M351T mutant (unknown origin) assessed as residual activity at 1000 nM by KINOMEscan analysis relative to control
[8] = biological target: Mitogen-activated protein kinase kinase kinase 11 (Homo sapiens) (UniProt Q16584); assay: Inhibition of MLK3 (unknown origin) assessed as residual activity at 1000 nM by KINOMEscan analysis relative to control
[9] = test system: Receptor-type tyrosine-protein kinase FLT3 (Homo sapiens), P36888 [UNDEFINED MUTATION]; assay: Inhibition of FLT3 ITD mutant (unknown origin) assessed as residual activity at 1000 nM by KINOMEscan analysis relative to control
[10] = biological target: Casein kinase II subunit alpha' (Homo sapiens) (UniProt P19784); assay: Inhibition of CSNK2A2 (unknown origin) assessed as residual activity at 1000 nM by KINOMEscan analysis relative to control
[11] = biological target: T3, Casein kinase I isoform alpha-like (Homo sapiens) (UniProt Q8N752); assay: Inhibition of CSNK1A1L (unknown origin) assessed as residual activity at 1000 nM by KINOMEscan analysis relative to control
T3 sequence (whole entry): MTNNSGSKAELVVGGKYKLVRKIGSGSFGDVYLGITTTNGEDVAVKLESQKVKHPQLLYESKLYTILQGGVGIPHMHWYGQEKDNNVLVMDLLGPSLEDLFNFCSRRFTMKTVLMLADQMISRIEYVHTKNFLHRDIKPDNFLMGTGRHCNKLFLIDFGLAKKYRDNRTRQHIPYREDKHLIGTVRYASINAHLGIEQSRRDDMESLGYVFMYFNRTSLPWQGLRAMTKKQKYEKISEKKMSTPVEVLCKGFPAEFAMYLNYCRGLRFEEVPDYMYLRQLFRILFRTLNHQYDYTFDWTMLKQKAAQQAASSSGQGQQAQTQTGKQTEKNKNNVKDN

[12] = biological target: Serine/threonine-protein kinase SIK2 (Homo sapiens) (UniProt Q9H0K1); assay: Inhibition of SIK2 (unknown origin) assessed as residual activity at 1000 nM by KINOMEscan analysis relative to control
Chain of Serine/threonine-protein kinase SIK2 (Homo sapiens) (Q9H0K1 whole entry, looked up): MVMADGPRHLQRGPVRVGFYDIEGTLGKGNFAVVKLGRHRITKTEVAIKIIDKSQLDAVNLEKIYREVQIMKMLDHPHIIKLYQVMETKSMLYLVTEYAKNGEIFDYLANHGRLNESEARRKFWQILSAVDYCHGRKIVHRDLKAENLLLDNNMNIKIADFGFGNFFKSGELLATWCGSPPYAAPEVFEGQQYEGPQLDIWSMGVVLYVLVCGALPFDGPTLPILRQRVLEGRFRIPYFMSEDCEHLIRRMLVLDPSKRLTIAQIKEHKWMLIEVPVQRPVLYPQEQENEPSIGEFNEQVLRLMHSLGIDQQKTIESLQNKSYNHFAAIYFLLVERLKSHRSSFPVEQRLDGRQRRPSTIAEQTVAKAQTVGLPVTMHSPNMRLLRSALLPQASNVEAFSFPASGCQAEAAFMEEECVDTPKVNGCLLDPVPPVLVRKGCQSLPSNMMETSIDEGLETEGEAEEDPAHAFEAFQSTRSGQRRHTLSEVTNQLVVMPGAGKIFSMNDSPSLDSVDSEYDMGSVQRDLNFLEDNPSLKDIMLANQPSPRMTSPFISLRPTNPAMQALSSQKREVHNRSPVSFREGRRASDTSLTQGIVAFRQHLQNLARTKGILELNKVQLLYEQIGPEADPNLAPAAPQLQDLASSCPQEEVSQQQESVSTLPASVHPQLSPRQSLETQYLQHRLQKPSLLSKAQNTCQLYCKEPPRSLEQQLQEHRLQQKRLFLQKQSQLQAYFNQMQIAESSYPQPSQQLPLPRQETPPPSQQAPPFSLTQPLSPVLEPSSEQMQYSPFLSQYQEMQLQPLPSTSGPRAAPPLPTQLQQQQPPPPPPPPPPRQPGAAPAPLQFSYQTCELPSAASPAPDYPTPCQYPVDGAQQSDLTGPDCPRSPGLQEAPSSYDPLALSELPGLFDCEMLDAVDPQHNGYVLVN

Chain of Serine/threonine-protein kinase PAK 5 (Homo sapiens) (Q9P286 whole entry, looked up): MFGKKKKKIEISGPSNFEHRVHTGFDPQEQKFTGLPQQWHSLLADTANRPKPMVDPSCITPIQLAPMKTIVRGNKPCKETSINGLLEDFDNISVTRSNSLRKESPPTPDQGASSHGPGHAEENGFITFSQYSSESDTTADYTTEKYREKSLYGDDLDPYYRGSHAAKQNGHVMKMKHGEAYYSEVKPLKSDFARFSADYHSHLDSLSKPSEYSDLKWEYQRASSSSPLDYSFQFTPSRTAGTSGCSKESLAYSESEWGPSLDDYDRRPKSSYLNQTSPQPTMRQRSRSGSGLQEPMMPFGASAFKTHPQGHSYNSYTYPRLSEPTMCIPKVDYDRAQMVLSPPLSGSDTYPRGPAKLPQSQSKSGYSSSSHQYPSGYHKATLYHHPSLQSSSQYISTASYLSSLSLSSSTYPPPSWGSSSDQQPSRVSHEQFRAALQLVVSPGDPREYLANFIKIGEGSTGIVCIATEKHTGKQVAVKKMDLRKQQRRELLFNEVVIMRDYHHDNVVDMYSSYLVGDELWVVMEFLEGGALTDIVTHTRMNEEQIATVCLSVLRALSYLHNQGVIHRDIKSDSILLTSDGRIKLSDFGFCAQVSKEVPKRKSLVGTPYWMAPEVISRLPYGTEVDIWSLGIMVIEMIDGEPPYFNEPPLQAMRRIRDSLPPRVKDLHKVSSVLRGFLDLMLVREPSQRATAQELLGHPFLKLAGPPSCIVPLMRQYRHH
Chain of Casein kinase II subunit alpha' (Homo sapiens) (P19784 whole entry, looked up, canonical isoform): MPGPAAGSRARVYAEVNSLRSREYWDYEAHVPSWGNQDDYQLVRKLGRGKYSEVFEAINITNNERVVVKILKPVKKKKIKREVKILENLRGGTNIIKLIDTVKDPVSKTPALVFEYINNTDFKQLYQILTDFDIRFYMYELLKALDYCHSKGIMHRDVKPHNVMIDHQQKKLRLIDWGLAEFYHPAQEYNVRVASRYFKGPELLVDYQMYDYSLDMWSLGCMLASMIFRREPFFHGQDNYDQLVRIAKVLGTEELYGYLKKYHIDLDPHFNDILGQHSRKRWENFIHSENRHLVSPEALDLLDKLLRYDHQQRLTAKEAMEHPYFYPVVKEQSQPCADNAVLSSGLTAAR
Chain of Receptor-type tyrosine-protein kinase FLT3 (Homo sapiens), P36888 [UNDEFINED MUTATION] (P36888 whole entry, looked up, change not shown): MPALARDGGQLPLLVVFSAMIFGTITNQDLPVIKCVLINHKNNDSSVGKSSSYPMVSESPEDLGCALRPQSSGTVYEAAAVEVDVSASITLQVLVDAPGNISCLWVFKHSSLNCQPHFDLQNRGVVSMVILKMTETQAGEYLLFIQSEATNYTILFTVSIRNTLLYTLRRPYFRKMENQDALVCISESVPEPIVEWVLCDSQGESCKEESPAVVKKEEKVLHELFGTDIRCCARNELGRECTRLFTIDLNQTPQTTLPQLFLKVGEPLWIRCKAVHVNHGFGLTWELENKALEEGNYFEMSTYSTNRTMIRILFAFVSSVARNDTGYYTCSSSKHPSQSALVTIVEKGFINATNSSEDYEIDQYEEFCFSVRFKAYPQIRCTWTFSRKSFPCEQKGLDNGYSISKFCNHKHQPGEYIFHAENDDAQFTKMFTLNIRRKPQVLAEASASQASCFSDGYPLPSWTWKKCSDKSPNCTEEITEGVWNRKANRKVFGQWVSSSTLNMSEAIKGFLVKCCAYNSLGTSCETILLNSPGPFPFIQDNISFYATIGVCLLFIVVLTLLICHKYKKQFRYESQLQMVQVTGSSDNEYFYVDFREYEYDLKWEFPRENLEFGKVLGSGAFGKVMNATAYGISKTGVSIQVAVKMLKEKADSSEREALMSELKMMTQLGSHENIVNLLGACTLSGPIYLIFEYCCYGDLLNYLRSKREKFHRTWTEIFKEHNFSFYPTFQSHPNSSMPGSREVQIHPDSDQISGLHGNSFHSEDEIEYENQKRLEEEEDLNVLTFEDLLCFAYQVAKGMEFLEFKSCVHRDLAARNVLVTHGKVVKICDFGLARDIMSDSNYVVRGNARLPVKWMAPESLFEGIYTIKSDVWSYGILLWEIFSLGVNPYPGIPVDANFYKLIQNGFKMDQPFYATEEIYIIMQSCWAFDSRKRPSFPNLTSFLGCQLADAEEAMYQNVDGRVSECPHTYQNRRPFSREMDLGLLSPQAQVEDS
Chain of Mitogen-activated protein kinase 3 (Homo sapiens) (P27361 whole entry): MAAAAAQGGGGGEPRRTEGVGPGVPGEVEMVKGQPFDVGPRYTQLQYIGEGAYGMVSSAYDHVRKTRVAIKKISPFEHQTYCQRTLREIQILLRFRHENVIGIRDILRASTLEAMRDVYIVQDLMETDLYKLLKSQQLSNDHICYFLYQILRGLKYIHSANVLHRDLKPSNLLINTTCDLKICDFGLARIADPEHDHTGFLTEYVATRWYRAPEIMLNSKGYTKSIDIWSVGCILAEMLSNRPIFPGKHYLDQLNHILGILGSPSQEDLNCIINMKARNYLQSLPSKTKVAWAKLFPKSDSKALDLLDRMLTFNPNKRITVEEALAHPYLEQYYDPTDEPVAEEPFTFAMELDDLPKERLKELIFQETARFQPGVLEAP
Chain of eIF-2-alpha kinase GCN2 (Homo sapiens), Q9P2K8 [S808G] (Q9P2K8 whole entry S808G): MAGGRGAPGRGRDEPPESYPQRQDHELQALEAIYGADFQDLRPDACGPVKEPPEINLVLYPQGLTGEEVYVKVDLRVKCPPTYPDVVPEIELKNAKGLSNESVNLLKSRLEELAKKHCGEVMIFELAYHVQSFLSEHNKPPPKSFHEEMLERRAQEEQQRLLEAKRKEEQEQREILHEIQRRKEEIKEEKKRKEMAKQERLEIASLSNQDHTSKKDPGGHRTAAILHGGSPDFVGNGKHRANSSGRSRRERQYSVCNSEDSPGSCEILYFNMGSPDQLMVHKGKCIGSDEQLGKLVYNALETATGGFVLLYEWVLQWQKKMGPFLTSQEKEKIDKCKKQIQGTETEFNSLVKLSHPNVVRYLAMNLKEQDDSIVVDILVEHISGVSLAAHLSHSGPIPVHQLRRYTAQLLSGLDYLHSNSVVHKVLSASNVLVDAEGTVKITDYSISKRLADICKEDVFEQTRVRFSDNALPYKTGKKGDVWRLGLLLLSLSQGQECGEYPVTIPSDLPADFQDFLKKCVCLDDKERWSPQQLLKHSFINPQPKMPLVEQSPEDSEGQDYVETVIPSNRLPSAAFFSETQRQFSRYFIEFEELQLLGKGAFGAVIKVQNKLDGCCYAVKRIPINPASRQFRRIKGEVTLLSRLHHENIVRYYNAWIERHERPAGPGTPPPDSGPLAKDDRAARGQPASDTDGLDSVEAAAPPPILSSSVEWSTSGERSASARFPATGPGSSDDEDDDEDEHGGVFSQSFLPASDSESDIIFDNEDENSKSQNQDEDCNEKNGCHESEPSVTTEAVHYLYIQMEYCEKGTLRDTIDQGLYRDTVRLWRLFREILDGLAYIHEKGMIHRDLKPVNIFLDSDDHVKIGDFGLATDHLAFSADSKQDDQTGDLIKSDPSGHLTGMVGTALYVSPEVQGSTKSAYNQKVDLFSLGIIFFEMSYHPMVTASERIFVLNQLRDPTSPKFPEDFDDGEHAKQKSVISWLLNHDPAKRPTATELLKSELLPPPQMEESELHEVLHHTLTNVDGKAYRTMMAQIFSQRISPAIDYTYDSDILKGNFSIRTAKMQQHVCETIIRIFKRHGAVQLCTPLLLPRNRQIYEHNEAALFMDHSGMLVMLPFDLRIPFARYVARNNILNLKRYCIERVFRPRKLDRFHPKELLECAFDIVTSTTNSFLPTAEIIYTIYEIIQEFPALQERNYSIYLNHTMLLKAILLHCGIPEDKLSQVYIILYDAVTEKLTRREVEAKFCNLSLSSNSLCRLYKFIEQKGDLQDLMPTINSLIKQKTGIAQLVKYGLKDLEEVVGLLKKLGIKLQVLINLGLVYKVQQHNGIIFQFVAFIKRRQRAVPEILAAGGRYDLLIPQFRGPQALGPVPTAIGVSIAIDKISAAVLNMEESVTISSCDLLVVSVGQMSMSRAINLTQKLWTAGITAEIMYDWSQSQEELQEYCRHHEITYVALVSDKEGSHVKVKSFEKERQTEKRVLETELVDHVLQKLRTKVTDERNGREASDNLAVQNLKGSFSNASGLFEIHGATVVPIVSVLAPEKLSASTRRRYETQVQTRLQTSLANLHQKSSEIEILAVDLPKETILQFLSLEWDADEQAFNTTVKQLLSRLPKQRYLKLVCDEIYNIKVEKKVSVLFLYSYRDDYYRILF

Structure (SMILES) | Activity [1] [%] | Activity [2] [%] | Activity [3] [%] | Activity [4] [%] | Activity [5] [%] | Activity [6] [%] | Activity [7] [%] | Activity [8] [%] | Activity [9] [%] | Activity [10] [%] | Activity [11] [%] | Activity [12] [%]
COc1cc2nc(C)nc(N[C@H](C)c3cccc(-c4cn[nH]c4)c3)c2cc1OC | 100 | 99 | 97 | 100 | 84 | 96 | 97 | 100 | 58 | 100 | 65 | 89
COc1cc2ncnc(N[C@H](C)c3cccc4ccccc34)c2cc1OC | 100 | 62 | 100 | 100 | 86 | 100 | 97 | 100 | 96 | 90 | 100 | 100
